Our source for the IC50 values is patent US8901111B2, “Aryl-substituted heterocyclic urea modulators of fatty acid amide hydrolase” (Janssen Pharmaceutica NV, priority 2009, dated 2014).

The structures appear in SMILES notation. Counter-ions that a name gives are not always drawn.

One test concerns the target T1, FAAH (Homo sapiens, UniProt O00519).
T1 sequence (O00519 1-579): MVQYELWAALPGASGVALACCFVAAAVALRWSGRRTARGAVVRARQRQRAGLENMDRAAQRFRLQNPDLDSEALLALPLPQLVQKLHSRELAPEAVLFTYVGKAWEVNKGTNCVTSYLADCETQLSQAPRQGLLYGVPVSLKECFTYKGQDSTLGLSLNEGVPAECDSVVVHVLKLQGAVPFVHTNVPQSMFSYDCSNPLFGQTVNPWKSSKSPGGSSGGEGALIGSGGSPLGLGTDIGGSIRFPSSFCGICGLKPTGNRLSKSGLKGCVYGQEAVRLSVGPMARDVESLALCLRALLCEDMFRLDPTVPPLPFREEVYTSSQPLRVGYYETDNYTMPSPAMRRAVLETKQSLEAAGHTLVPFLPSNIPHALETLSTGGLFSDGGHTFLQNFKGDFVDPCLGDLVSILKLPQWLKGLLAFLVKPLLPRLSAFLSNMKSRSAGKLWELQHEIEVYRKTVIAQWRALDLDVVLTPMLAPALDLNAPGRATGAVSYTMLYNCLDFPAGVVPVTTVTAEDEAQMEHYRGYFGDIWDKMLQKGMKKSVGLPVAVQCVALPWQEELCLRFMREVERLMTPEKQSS
As to the kind of experiment: Assay Method 1: FAAH assay, 3H-anandamide hydrolysis in homogenate of cells transfected with human FAAH. The class given is biochemical. As to conditions: cell homogenate, 3H-AEA 80 nM, 1 h at rt, average of results. More on the design: expressed in transfected cells; crude homogenate (T84 cell pellets named as alternative). A digest of the protocol: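 Homogenates of SK-N-MC cells stably transfected with human FAAH (or T84 cells) in pH 9 Tris/EDTA/glycerol/Triton buffer, incubated with compound and 80 nM final ^3H-anandamide for 1 h at rt. Released ^3H-ethanolamine separated through activated charcoal by centrifugation and counted by scintillation.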

The next test addresses T2, rat FAAH (Rattus norvegicus, UniProt P97612).
T2 construct: expressed in transfected cells; crude homogenate
T2 sequence (P97612 1-579): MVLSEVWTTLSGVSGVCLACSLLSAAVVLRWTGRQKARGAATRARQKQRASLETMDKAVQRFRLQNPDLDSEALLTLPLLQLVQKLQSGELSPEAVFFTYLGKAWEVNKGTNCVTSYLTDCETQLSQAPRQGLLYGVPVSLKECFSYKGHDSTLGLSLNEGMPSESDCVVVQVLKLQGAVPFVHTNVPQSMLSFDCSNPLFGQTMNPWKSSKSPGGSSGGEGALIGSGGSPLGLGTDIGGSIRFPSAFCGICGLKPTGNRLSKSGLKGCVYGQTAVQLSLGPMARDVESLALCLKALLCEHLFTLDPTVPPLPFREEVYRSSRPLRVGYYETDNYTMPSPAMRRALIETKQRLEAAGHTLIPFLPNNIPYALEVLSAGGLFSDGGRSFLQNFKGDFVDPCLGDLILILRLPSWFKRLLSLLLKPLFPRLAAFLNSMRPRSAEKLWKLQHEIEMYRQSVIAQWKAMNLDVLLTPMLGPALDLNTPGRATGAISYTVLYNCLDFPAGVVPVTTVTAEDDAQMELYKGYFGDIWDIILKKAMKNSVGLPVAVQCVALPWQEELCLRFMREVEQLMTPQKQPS
Briefly: Assay Method 2: FAAH assay, 3H-anandamide hydrolysis in homogenate of cells transfected with rat FAAH. The class given is biochemical. As to conditions: cell homogenate, 3H-AEA 80 nM, 1 h at rt, average of results. A digest of the protocol: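 Homogenate of SK-N-MC cells stably transfected with rat FAAH, in pH 9 Tris/EDTA/glycerol/Triton buffer, incubated 1 h at rt with 80 nM final [1-3H-ethanolamine]anandamide. Released 3H-ethanolamine separated from substrate on activated charcoal filters by centrifugation and quantified by scintillation counting.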

The IC50 is the concentration that gives 50% inhibition. Turning to `O=C(Nc1cccc2nccn12)N1CCC(Cc2cccc(Oc3ccc(F)cc3)c2)C1` (centres unmarked) [Example 76, 3-[3-(4-Fluoro-phenoxy)-benzyl]-pyrrolidine-1-carboxylic acid imidazo[1,2-a]pyridin-5-ylamide], the IC50 came to 400 nM on FAAH and 70 nM against rat FAAH.
The corresponding values for `O=C(Nc1cnc2[nH]ccc2c1)N1CC(CCOc2cccc(Oc3ccc(Cl)cc3)c2)C1` [Example 40, 3-{2-[3-(4-Chloro-phenoxy)-phenoxy]-ethyl}-azetidine-1-carboxylic acid (1H-pyrrolo[2,3-b]pyridin-5-yl)-amide] are 3 nM and 4 nM.
For `O=C(Nc1noc2ccccc12)N1CCC(Cc2ccc3c(c2)OC(F)(F)O3)C1` (centres unmarked) [Example 72, 3-(2,2-Difluoro-benzo[1,3]dioxol-5-ylmethyl)-pyrrolidine-1-carboxylic acid benzo[d]isoxazol-3-ylamide], the IC50 at FAAH was greater than 10000 nM; against rat FAAH, 770 nM.
As for `O=C(Nc1cccnc1)N1CC(COc2ccc3ncccc3c2)C1` [Example 15, 3-(Quinolin-6-yloxymethyl)-azetidine-1-carboxylic acid pyridin-3-ylamide, trifluoroacetate salt], the IC50 on FAAH and on rat FAAH was greater than 10000 nM each time.
With `O=C(Nc1cnccc1Cl)N1CCC(COc2ccc(Cl)c(Cl)c2)C1` (centres unmarked) [Example 49, N-(4-Chloropyridin-3-yl)-3-[(3,4-dichlorophenoxy)methyl]pyrrolidine-1-carboxamide], the IC50 on FAAH is 9 nM; against rat FAAH, 33 nM.
On the same counts, the results for `O=C(Nc1cnccc1Cl)N1CCC(CCOc2cccc(OC(F)(F)F)c2)C1` (centres unmarked) [Example 61, 3-[2-(3-Trifluoromethoxy-phenoxy)-ethyl]-pyrrolidine-1-carboxylic acid (4-chloro-pyridin-3-yl)-amide] are 1600 nM and 1600 nM.
The corresponding values for `O=C(Nc1cccnc1)N1CC(COc2ccc(-c3ccccc3)cc2)C1` [Example 18, 3-(Biphenyl-4-yloxymethyl)-azetidine-1-carboxylic acid pyridin-3-ylamide] are greater than 10000 nM and greater than 10000 nM.
The corresponding values for `O=C(Nc1cccnc1)N1CCC(CCOc2ccc(OC(F)(F)F)cc2)C1` (centres unmarked) [Example 60, 3-[2-(4-Trifluoromethoxy-phenoxy)-ethyl]-pyrrolidine-1-carboxylic acid pyridin-3-ylamide] are greater than 10000 nM and greater than 10000 nM.
Take `O=C(Nc1cccnc1)N1CC(CCOc2cc(Cl)cc(Cl)c2)C1` [Example 47, 3-[2-(3,5-Dichloro-phenoxy)-ethyl]-azetidine-1-carboxylic acid pyridin-3-ylamide]: the IC50 was 1000 nM against FAAH and 250 nM on rat FAAH.
On the same counts, the results for `CCCCOc1cccc(OCCC2CN(C(=O)Nc3cccnc3)C2)c1` [Example 33, 3-[2-(3-Butoxy-phenoxy)-ethyl]-azetidine-1-carboxylic acid pyridin-3-ylamide] are 34 nM and 2000 nM.
For `O=C(Nc1cnccc1Cl)N1CCC(CCOc2ccc(Cl)c(Cl)c2)C1` (centres unmarked) [Example 58, 3-[2-(3,4-Dichloro-phenoxy)-ethyl]-pyrrolidine-1-carboxylic acid (4-chloro-pyridin-3-yl)-amide], the IC50 against FAAH was found to be 300 nM; against rat FAAH, 700 nM.
In the case of `O=C(Nc1cnccc1Cl)N1CC[C@@H](COc2cccc(Oc3ccc(Cl)cc3)c2)C1` [Example 56, (3R)-3-[3-(4-Chloro-phenoxy)-phenoxymethyl]-pyrrolidine-1-carboxylic acid (4-chloro-pyridin-3-yl)-amide], the IC50 against FAAH came out at 4 nM; against rat FAAH, 2 nM.
On the same counts, the results for `CCCCOc1cccc(OCC2CN(C(=O)Nc3cccnc3)C2)c1` [Example 12, 3-(3-Butoxy-phenoxymethyl)-azetidine-1-carboxylic acid pyridin-3-ylamide] are 300 nM and greater than 10000 nM.
With `O=C(Nc1cccnc1)N1CC(COc2ccccc2)C1` [Example 2, 3-Phenoxymethyl-azetidine-1-carboxylic acid pyridin-3-ylamide, trifluoroacetate salt], the IC50 at FAAH and against rat FAAH was greater than 10000 nM each time.
On to `O=C(Nc1cccnc1)N1CC(CCOc2cccc(C(F)(F)F)c2)C1` [Example 46, 3-[2-(3-Trifluoromethyl-phenoxy)-ethyl]-azetidine-1-carboxylic acid pyridin-3-ylamide], for which the IC50 against FAAH was 1600 nM; against rat FAAH it was 615 nM.
On the same counts, the results for `O=C(Nc1ccc(-n2nccn2)nc1)N1CC(CCOc2cccc(Oc3ccc(Cl)cc3)c2)C1` [Example 39, 3-{2-[3-(4-Chloro-phenoxy)-phenoxy]-ethyl}-azetidine-1-carboxylic acid (6-[1,2,3]triazol-2-yl-pyridin-3-yl)-amide] are 13 nM and 10 nM.
For the molecule `O=C(Nc1cccnc1)N1CC(CCOc2cccc(Oc3ccc(Cl)cc3)c2)C1` [Example 44, 3-{2-[3-(4-Chloro-phenoxy)-phenoxy]-ethyl}-azetidine-1-carboxylic acid pyridin-3-ylamide], the IC50 against FAAH is 13 nM; on rat FAAH it was 27 nM.
The corresponding values for `O=C(Nc1cccnc1)N1CC(COc2ccc3cccc(Cl)c3n2)C1` [Example 22, 3-(8-Chloro-quinolin-2-yloxymethyl)-azetidine-1-carboxylic acid pyridin-3-ylamide] are 1300 nM and 500 nM.
With `O=C(Nc1cccnc1)N1CCC(CCOc2cccc(OC(F)(F)F)c2)C1` (centres unmarked) [Example 59, 3-[2-(3-Trifluoromethoxy-phenoxy)-ethyl]-pyrrolidine-1-carboxylic acid pyridin-3-ylamide], the IC50 against FAAH and on rat FAAH was greater than 10000 nM in each case.
Consider `O=C(Nc1cnccc1Cl)N1CC(CCOc2cccc(Oc3ccc(Cl)cc3)c2)C1` [Example 28, 3-{2-[3-(4-Chloro-phenoxy)-phenoxy]-ethyl}-azetidine-1-carboxylic acid (4-chloro-pyridin-3-yl)-amide], for which the IC50 on FAAH and on rat FAAH was 1 nM each time.
Take `O=C(Nc1cccnc1)N1CC(COc2ccc(OC(F)(F)F)cc2)C1` [Example 5, 3-(4-Trifluoromethoxy-phenoxymethyl)-azetidine-1-carboxylic acid pyridin-3-ylamide]: the IC50 on FAAH was greater than 10000 nM; on rat FAAH, 3000 nM.
In the case of `O=C(Nc1cccnc1)N1CC(COc2ccc3ccccc3c2)C1` [Example 20, 3-(Naphthalen-2-yloxymethyl)-azetidine-1-carboxylic acid pyridin-3-ylamide], the IC50 was 1000 nM against FAAH and 1600 nM against rat FAAH.
On the same counts, the results for `O=C(Nc1cccnc1)N1CCC(CCOc2cccc(Oc3ccc(Cl)cc3)c2)C1` (centres unmarked) [Example 63, 3-{2-[3-(4-Chloro-phenoxy)-phenoxy]-ethyl}-pyrrolidine-1-carboxylic acid pyridin-3-ylamide] are 600 nM and 630 nM.
The corresponding values for `O=C(Nc1cnc2ccccn12)N1CC(CCOc2cccc(Oc3ccc(Cl)cc3)c2)C1` [Example 42, 3-{2-[3-(4-Chloro-phenoxy)-phenoxy]-ethyl}-azetidine-1-carboxylic acid imidazo[1,2-a]pyridin-3-ylamide] are 30 nM and 24 nM.
`O=C(Nc1cccnc1)N1CC(COc2ccc3ccccc3n2)C1` [Example 9, 3-(Quinolin-2-yloxymethyl)-azetidine-1-carboxylic acid pyridin-3-ylamide]: the IC50 on FAAH and against rat FAAH was 1300 nM in each case.
